Experimental data from patent publication US20170342061A1 (CHONGQING PHARMACEUTICAL INDUSTRIAL RESEARCH INSTITUTE CO., …, priority 2014, published 2017).

Test: Stability testing of crystal form I of Canagliflozin
Assay type: physicochemical
[1] = placed at 25 ± 2° C. and a humidity of RH92.5% for 30 days
[2] = placed at 40 ± 2° C. for 30 days
[3] = placed at 60 ± 2° C. for 30 days

HPLC change before placed (before being placed at 25 ± 2° C. and a humidity of RH92.5% for 30 days): 99.89%
HPLC change before placed (before being placed at 40 ± 2° C. for 30 days): 99.89%
HPLC change before placed (before being placed at 60 ± 2° C. for 30 days): 99.89%
stability (overall conclusion from the stability table): good stability
HPLC change after placed [1]: 99.89%
crystal form [1]: Crystal form I
whether the appearance changed [1]: No change
whether there being apparent moisture absorption [1]: No apparent
HPLC change after placed [2]: 99.88%
crystal form [2]: Crystal form I
whether the appearance changed [2]: No change
whether there being apparent moisture absorption [2]: No apparent
HPLC change after placed [3]: 99.87%
crystal form [3]: Crystal form I
whether the appearance changed [3]: No change
whether there being apparent moisture absorption [3]: No apparent
SMILES: Cc1ccc([C@@H]2O[C@H](CO)[C@@H](O)[C@H](O)[C@H]2O)cc1Cc1ccc(-c2ccc(F)cc2)s1 [crystal form I of Canagliflozin, 1-(β-D-glucopyranosyl)-4-methyl-3-[5-(4-fluorophenyl)-2-thienylmethyl]benzene]
